Results reported in PubChem BioAssay (NCI).
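Abbreviation: GI50, concentration required for 50% inhibition of growth. TGI marks complete inhibition of growth.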

Experiments:
Test in all cases: NCI anticancer screen, dose series, 384-well format
786-0 renal = tested on: 786-0 renal
A498 renal = tested on: A498 renal
A549 NSCLC = tested on: A549 NSCLC
ACHN renal = tested on: ACHN renal
BT-549 breast = tested on: BT-549 breast
CAKI-1 renal = tested on: CAKI-1 renal
CCRF-CEM leukemia = tested on: CCRF-CEM leukemia
COLO 205 colon = tested on: COLO 205 colon
DU-145 prostate = tested on: DU-145 prostate
EKVX NSCLC = tested on: EKVX NSCLC
HCC-2998 colon = tested on: HCC-2998 colon
HCT-116 colon = tested on: HCT-116 colon
HCT-15 colon = tested on: HCT-15 colon
HL-60(TB) leukemia = tested on: HL-60(TB) leukemia
HOP-62 NSCLC = tested on: HOP-62 NSCLC
HOP-92 NSCLC = tested on: HOP-92 NSCLC
HS 578T breast = tested on: HS 578T breast
HT29 colon = tested on: HT29 colon
IGROV1 ovarian = tested on: IGROV1 ovarian
K-562 leukemia = tested on: K-562 leukemia
KM12 colon = tested on: KM12 colon
LOX IMVI melanoma = tested on: LOX IMVI melanoma
M14 melanoma = tested on: M14 melanoma
MALME-3M melanoma = tested on: MALME-3M melanoma
MDA-MB-231 breast = tested on: MDA-MB-231 breast
MDA-MB-435 melanoma = tested on: MDA-MB-435 melanoma
MDA-MB-468 breast = tested on: MDA-MB-468 breast
MOLT-4 leukemia = tested on: MOLT-4 leukemia
NCI-H226 lung = tested on: NCI-H226 lung
NCI-H23 lung = tested on: NCI-H23 lung
NCI-H322M lung = tested on: NCI-H322M lung
NCI-H460 NSCLC = tested on: NCI-H460 NSCLC
NCI-H522 lung = tested on: NCI-H522 lung
NCI/ADR-RES ovarian = tested on: NCI/ADR-RES ovarian
OVCAR-3 ovarian = tested on: OVCAR-3 ovarian
OVCAR-4 ovarian = tested on: OVCAR-4 ovarian
OVCAR-8 ovarian = tested on: OVCAR-8 ovarian
PC-3 prostate = tested on: PC-3 prostate
RPMI-8226 leukemia = tested on: RPMI-8226 leukemia
RXF 393 renal = tested on: RXF 393 renal
SF-268 CNS = tested on: SF-268 CNS
SF-295 CNS = tested on: SF-295 CNS
SF-539 CNS = tested on: SF-539 CNS
SK-MEL-28 melanoma = tested on: SK-MEL-28 melanoma
SK-MEL-5 melanoma = tested on: SK-MEL-5 melanoma
SK-OV-3 ovarian = tested on: SK-OV-3 ovarian
SN12C renal = tested on: SN12C renal
SNB-19 CNS = tested on: SNB-19 CNS
SNB-75 CNS = tested on: SNB-75 CNS
SR leukemia = tested on: SR leukemia
SW-620 colon = tested on: SW-620 colon
T-47D breast = tested on: T-47D breast
TK-10 renal = tested on: TK-10 renal
U251 glioblastoma = tested on: U251 glioblastoma
UACC-257 melanoma = tested on: UACC-257 melanoma
UACC-62 melanoma = tested on: UACC-62 melanoma
UO-31 renal = tested on: UO-31 renal

With `CCC(Sc1nnc2c3ccccc3n(CC)c2n1)C(=O)Nc1ccccc1OC` (centres undefined) the GI50 ([…]-0 renal) was over 100 µM, the TGI (786-0 renal) was over 100 µM and the GI50 (A498 renal) was 4.74 µM. For the same compound, the TGI (A498 renal) was over 100 µM, the GI50 (A549 NSCLC) was 4.27 µM and the TGI (A549 NSCLC) was over 100 µM. It also gave a GI50 (ACHN renal) of over 100 µM, a TGI (ACHN renal) of over 100 µM and a GI50 (BT-549 breast) of over 100 µM. The TGI (BT-549 breast) was over 100 µM, the GI50 (CAKI-1 renal) was 0.384 µM and the TGI (CAKI-1 renal) was 2.65 µM. The GI50 (CCRF-CEM leukemia) was over 100 µM, the TGI (CCRF-CEM leukemia) was over 100 µM and the GI50 (COLO 205 colon) was over 100 µM. For the same compound, the TGI (COLO 205 colon) was over 100 µM, the GI50 (DU-145 prostate) was over 100 µM and the TGI (DU-145 prostate) was over 100 µM. For the same compound, the GI50 (EKVX NSCLC) was 0.547 µM, the TGI (EKVX NSCLC) was 5.44 µM and the GI50 (HCC-2998 colon) was over 100 µM. The TGI (HCC-2998 colon) was over 100 µM, the GI50 (HCT-116 colon) was over 100 µM and the TGI (HCT-116 colon) was over 100 µM. The GI50 (HCT-15 colon) was 7.59 µM, the TGI (HCT-15 colon) was over 100 µM and the GI50 (HL-60(TB) leukemia) was 0.444 µM. The TGI (HL-60(TB) leukemia) was 1.48 µM, the GI50 (HOP-62 NSCLC) was 3.56 µM and the TGI (HOP-62 NSCLC) was over 100 µM. For the same compound, the GI50 (HOP-92 NSCLC) was over 100 µM, the TGI (HOP-92 NSCLC) was over 100 µM and the GI50 (HS 578T breast) was over 100 µM. The TGI (HS 578T breast) was over 100 µM, the GI50 (HT29 colon) was over 100 µM and the TGI (HT29 colon) was over 100 µM. The GI50 (IGROV1 ovarian) was over 100 µM, the TGI (IGROV1 ovarian) was over 100 µM and the GI50 (K-562 leukemia) was 7.45 µM. For the same compound, the TGI (K-562 leukemia) was over 100 µM, the GI50 (KM12 colon) was over 100 µM and the TGI (KM12 colon) was over 100 µM. The GI50 (LOX IMVI melanoma) was over 100 µM, the TGI (LOX IMVI melanoma) was over 100 µM and the GI50 (M14 melanoma) was over 100 µM. It also gave a TGI (M14 melanoma) of over 100 µM, a GI50 (MALME-3M melanoma) of over 100 µM and a TGI (MALME-3M melanoma) of over 100 µM. For the same compound, the GI50 (MDA-MB-231 breast) was over 100 µM, the TGI (MDA-MB-231 breast) was over 100 µM and the GI50 (MDA-MB-435 melanoma) was over 100 µM. It also gave a TGI (MDA-MB-435 melanoma) of over 100 µM, a GI50 (MDA-MB-468 breast) of 0.229 µM and a TGI (MDA-MB-468 breast) of 0.475 µM. It also gave a GI50 (MOLT-4 leukemia) of 3.51 µM, a TGI (MOLT-4 leukemia) of 79.7 µM and a GI50 (NCI-H226 lung) of over 100 µM. It also gave a TGI (NCI-H226 lung) of over 100 µM, a GI50 (NCI-H23 lung) of 1.67 µM and a TGI (NCI-H23 lung) of 5.23 µM. The GI50 (NCI-H322M lung) was 4.91 µM, the TGI (NCI-H322M lung) was over 100 µM and the GI50 (NCI-H460 NSCLC) was over 100 µM. For the same compound, the TGI (NCI-H460 NSCLC) was over 100 µM, the GI50 (NCI-H522 lung) was over 100 µM and the TGI (NCI-H522 lung) was over 100 µM. The GI50 (NCI/ADR-RES ovarian) was over 100 µM, the TGI (NCI/ADR-RES ovarian) was over 100 µM and the GI50 (OVCAR-3 ovarian) was 3.28 µM. It also gave a TGI (OVCAR-3 ovarian) of over 100 µM, a GI50 (OVCAR-4 ovarian) of over 100 µM and a TGI (OVCAR-4 ovarian) of over 100 µM. It also gave a GI50 (OVCAR-8 ovarian) of over 100 µM, a TGI (OVCAR-8 ovarian) of over 100 µM and a GI50 (PC-3 prostate) of over 100 µM. For the same compound, the TGI (PC-3 prostate) was over 100 µM, the GI50 (RPMI-8226 leukemia) was 0.451 µM and the TGI (RPMI-8226 leukemia) was 1.92 µM. It also gave a GI50 (RXF 393 renal) of over 100 µM, a TGI (RXF 393 renal) of over 100 µM and a GI50 (SF-268 CNS) of over 100 µM. It also gave a TGI (SF-268 CNS) of over 100 µM, a GI50 (SF-295 CNS) of over 100 µM and a TGI (SF-295 CNS) of over 100 µM. The GI50 (SF-539 CNS) was over 100 µM, the TGI (SF-539 CNS) was over 100 µM and the GI50 (SK-MEL-28 melanoma) was over 100 µM. It also gave a TGI (SK-MEL-28 melanoma) of over 100 µM, a GI50 (SK-MEL-5 melanoma) of 5.43 µM and a TGI (SK-MEL-5 melanoma) of over 100 µM. The GI50 (SK-OV-3 ovarian) was over 100 µM, the TGI (SK-OV-3 ovarian) was over 100 µM and the GI50 (SN12C renal) was 1.18 µM. It also gave a TGI (SN12C renal) of 5.17 µM, a GI50 (SNB-19 CNS) of over 100 µM and a TGI (SNB-19 CNS) of over 100 µM. For the same compound, the GI50 (SNB-75 CNS) was over 100 µM, the TGI (SNB-75 CNS) was over 100 µM and the GI50 (SR leukemia) was 3.3 µM. It also gave a TGI (SR leukemia) of 5.99 µM, a GI50 (SW-620 colon) of over 100 µM and a TGI (SW-620 colon) of over 100 µM. It also gave a GI50 (T-47D breast) of over 100 µM, a TGI (T-47D breast) of over 100 µM and a GI50 (TK-10 renal) of over 100 µM. For the same compound, the TGI (TK-10 renal) was over 100 µM, the GI50 (U251 glioblastoma) was over 100 µM and the TGI (U251 glioblastoma) was over 100 µM. For the same compound, the GI50 (UACC-257 melanoma) was over 100 µM, the TGI (UACC-257 melanoma) was over 100 µM and the GI50 (UACC-62 melanoma) was over 100 µM. The TGI (UACC-62 melanoma) was over 100 µM, the GI50 (UO-31 renal) was 3.74 µM and the TGI (UO-31 renal) was over 100 µM.
